Test results: patent publication US20080119412A1, “Polypeptides for Modulating Binding of Trp Channel Proteins and Trp- Associated Proteins” (NoNO Inc., priority 2003, published 2008)
Residues, ends and D or L forms follow the SMILES beside them. *: point of attachment. Biotin = O=C1N[C@H]2[C@H](CS[C@H]2CCCCC(=O)*)N1

How the values were obtained:
Assay in all cases: G3 assay titration, GST-PDZ fusion / biotinylated peptide
Format in all cases: binding
Mint1 d2 = target: T1, Mint1 d2 (Homo sapiens, UniProt Q02410)
T1 construct: made in house; host or cells: E. coli (DH5alpha, BL21 or JM109)
T1 sequence (Q02410 with tags, fused parts or gaps): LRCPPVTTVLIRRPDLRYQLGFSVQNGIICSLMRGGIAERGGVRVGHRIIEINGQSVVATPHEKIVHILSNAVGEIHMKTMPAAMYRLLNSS
Procedure: (§1) The G3 assay is identical to the G0 assay with the following exceptions. The peptides are typically present at 0.1 μM rather than 20 μM. The peptides are also pre-incubated with the HRP-streptavidin prior to adding to the assay plate. In the G0 assay, free peptide is incubated with the PDZ proteins prior to the addition of the HRP-streptavidin. Thus, for the G0 assay one can lose signal if the bound peptide dissociates from the PDZ protein prior to the addition of the HRP-streptavidin. In the G3 modified assay the HRP-streptavidin/peptide complex is added to the plate in one step, thus increasing the likelihood that all the bound peptide will be bound to HRP-streptavidin. The G3 modified assay increases the chance of observing weak interactions.
(§2) This example describes assays to identify binding between TRPM7 and PDZ domains. GST-PDZ fusions are produced that each contain an entire PDZ domain (or multiple PDZ domains), the collection encompassing approximately 90% of all PDZ domains identified in the human genome. (See Table 5 and Section V (PDZ Proteins and PL Protein Interactions Disclosure). Biotinylated peptide corresponding to 11 residues of Tat coupled to the C-terminal 9 amino acids of TRPM7 ([…]; SEQ ID NO:258) is synthesized and purified by HPLC.
(§3) • Nunc MaxiSorp 96 well Immuno-plate, Nunc • PBS pH 7.4 (phosphate buffered saline, 8 g NaCl, 0.29 g KCl, 1.44 g Na2HPO4, 0.24 g KH2PO4, add H2O to 1 liter and pH 7.4; 0.2 μm filter) • Assay Buffer: 2% BSA in PBS (20 g of bovine serum albumin per liter PBS, fraction V, ICN Biomedicals, cat#IC15142983 • Goat anti-GST polyclonal Ab, stock 5 mg/ml, stored at 4° C., Amersham Pharmacia cat#27-4577-01 • Dilute 1:1000 in PBS, final concentration 5 μg/ml. • HRP-Streptavidin, 2.5 mg/2 ml stock stored at 4° C., Zymed cat#43-4323, dilute 1:2000 into Assay buffer, final concentration of […] • Wash Buffer, PBS • Biotinylated peptides (HPLC purified, stock solution stored in −20° C. freezer) • GST-PRISM proteins (stock stored at −80° C., after 1st thaw store in −10° C. freezer) • TMB (3,3′,5,5′, teramethylbensidine), tablets, Sigma cat.#T5525 • Per plate, dissolve 1 tablet in 1 ml DMSO, add 9 ml Citrate/Phosphate buffer pH 5.4 and 2 μL H2O2 • 0.1 M H2SO4, Sigma cat.#S1526 • 12-w multichannel pipettor & tips • 50 ml reagent reservoirs, Costar#4870 • 50, 15 ml polypropylene conical tubes • Costar Transtar 96 Costar #7605 • Transtar 96 Cartridge Costar #7610 • Molecular Devices microplate reader (450 & 650 nm filters) with SoftMax Pro software *When using reagents stored at or 4° C. or −20° C., remove & keep on ice
(§4) • 1. Coat plate with 100 μl of 5 μg/ml anti-GST, overnight at 4° C. • 2. Dump contents of plate & out tap dry on paper towels • 3. Block with 200 μl Assay Buffer for 2 hrs at room temperature • 4. Prepare proteins at 5 μg/ml in Assay Buffer • 5. Wash 3× with cold PBS (4° C.), avoiding letting the plates dry out • 6. Add proteins at 50 μl per well, incubate 1 to 2 hrs at 4° C. • 7. Prepare peptides to desired concentration in Assay Buffer • 8. Wash 3× with cold PBS (4° C.), avoiding letting the plates dry out • 9. Add HRP-Streptavidin/peptide complex [prepared by incubating for 20 minutes at room temperature HRP-Streptavidin (1:2000) with the desired biotin-peptide concentration for 20 minutes at room temperature] at 50 μl per well on ice • 10. Place at room temperature for exactly 30 minutes • 11. Promptly wash 5× with PBS at room temperature • 12. Add 100 μl/well TMB substrate (write time on plate) • 13. Incubate in dark at room temperature for a maximum of 30 minutes • 14. Read plate at 25 minutes (650 nm), optional • 15. Stop reaction with 100 μl of 0.18 M H2SO4, 30 minutes after adding TMB • Take last reading at 450 nm soon after stopping reaction
(§5) The G3 assay was performed on a subset of the PDZ domains as in Example II except that the concentration of peptide was 0.002 μM, […], 0.1 μM, 0.2 μM, 1 μM, and 2 μM. Data was fitted to the equation: […]

KIAA1284 d1 = target: T2, KIAA1284 d1 (Homo sapiens, UniProt Q9ULD6)
T2 construct: made in house; host or cells: E. coli (DH5alpha, BL21 or JM109)
T2 sequence (Q9ULD6 159-271): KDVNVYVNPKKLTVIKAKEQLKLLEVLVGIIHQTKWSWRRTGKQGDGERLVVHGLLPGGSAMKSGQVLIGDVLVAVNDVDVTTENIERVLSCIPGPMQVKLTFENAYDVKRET
Procedure: as §1, §2, §3, §4, §5

MUPP1 d3 = target: T3, MUPP1 d3 (Homo sapiens, UniProt O75970)
T3 construct: made in house; host or cells: E. coli (DH5alpha, BL21 or JM109)
T3 sequence (O75970 with tags, fused parts or gaps): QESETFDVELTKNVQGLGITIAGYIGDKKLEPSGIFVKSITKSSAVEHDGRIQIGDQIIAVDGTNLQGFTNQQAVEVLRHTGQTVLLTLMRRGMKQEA
Procedure: as §1, §2, §3, §4, §5

TIP1 d1 = target: T4, TIP1 d1 (Homo sapiens, UniProt O14907)
T4 construct: made in house; host or cells: E. coli (DH5alpha, BL21 or JM109)
T4 sequence (O14907 14-116): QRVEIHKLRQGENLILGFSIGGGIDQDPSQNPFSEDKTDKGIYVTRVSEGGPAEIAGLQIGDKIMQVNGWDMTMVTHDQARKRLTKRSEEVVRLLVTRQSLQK
Procedure: as §1, §2, §3, §4, §5

SITAC-18 d1 = target: T5, SITAC-18 d1 (Homo sapiens, UniProt Q9H190)
T5 construct: made in house; host or cells: E. coli (DH5alpha, BL21 or JM109)
T5 sequence (Q9H190 104-195): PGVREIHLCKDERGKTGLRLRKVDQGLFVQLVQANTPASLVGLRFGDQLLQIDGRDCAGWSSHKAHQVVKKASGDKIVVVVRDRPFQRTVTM
Procedure: as §1, §2, §3, §4, §5

PAR3 d3 = target: T6, PAR3 d3 (Homo sapiens, UniProt Q8TEW0, R682S)
T6 construct: made in house; host or cells: E. coli (DH5alpha, BL21 or JM109)

ZO-1 d2 = target: T7, ZO-1 d2 (Homo sapiens, UniProt Q07157, DEL264-264)
T7 construct: made in house; host or cells: E. coli (DH5alpha, BL21 or JM109)
T7 sequence (Q07157 with tags, fused parts or gaps DEL264-264): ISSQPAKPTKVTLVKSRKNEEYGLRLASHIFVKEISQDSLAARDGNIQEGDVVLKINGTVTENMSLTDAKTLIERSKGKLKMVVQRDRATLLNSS
How it was run: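 ELISA with anti-GST-captured GST-PDZ fusions (5 μg/ml), probed by biotinylated Tat-TRPM7 C-terminal peptide precomplexed 20 min with HRP-streptavidin. Binding ran 30 min at room temperature; TMB read at 450 nm. Peptide was titrated from 0.002 to 2 μM and data fitted to a binding equation.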

T6 sequence (Q8TEW0 with tags, fused parts or gaps R682S): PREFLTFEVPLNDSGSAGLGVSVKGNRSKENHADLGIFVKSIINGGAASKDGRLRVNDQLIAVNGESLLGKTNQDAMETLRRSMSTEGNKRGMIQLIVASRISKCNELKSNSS

Q: How did the EC50 (Mint1 d2) turn out when CSCC[C@H](NC(=O)[C@H](CC(C)C)NC(=O)[C@H](CCCNC(=N)N)NC(=O)[C@@H](NC(=O)[C@H](CO)NC(=O)[C@H](CC(N)=O)NC(=O)[C@@H](NC(=O)[C@H](CO)NC(=O)[C@H](CCCNC(=N)N)NC(=O)[C@H](CCCNC(=N)N)NC(=O)[C@H](CCCNC(=N)N)NC(=O)[C@H](CCC(N)=O)NC(=O)[C@H](CCCNC(=N)N)NC(=O)[C@H](CCCNC(=N)N)NC(=O)[C@H](CCCCN)NC(=O)[C@H](CCCCN)NC(=O)[C@H](CCCNC(=N)N)NC(=O)CNC(=O)[C@H](Cc1ccc(O)cc1)NC(=O)CCCC[C@@H]1SC[C@@H]2NC(=O)N[C@@H]21)[C@@H](C)O)C(C)C)C(=O)N[C@@H](CC(C)C)C(=O)O [Tat-TRPM7 peptide] (Biotin-YGRKKRRQRRRSTNSVRLML-OH) was run?
A: < 2000 nM

Q: What about the EC50 (KIAA1284 d1) of the same compound?
A: > 2000 nM

Q: And the EC50 (MUPP1 d3)?
A: 290 nM

Q: And the EC50 (TIP1 d1)?
A: < 1000 nM

Q: What about the EC50 (SITAC-18 d1) of the same compound?
A: < 1000 nM

Q: And the EC50 (PAR3 d3)?
A: 18 nM

Q: And the EC50 (ZO-1 d2)?
A: 33 nM
